Consider 25 molecules from EP4582423A1, “NOVEL TRICYCLIC DERIVATIVE COMPOUND AND USES THEREOF” (Hanmi Pharm. Co., Ltd., priority 2022, dated 2024).

The test system of this assay is HCT116 MTAP-/- cells. As to the kind of experiment: Cell growth inhibition test (SRB staining). It is filed as cell-based. The protocol: The synthetic compounds above were tested for cell growth inhibition against HCT116 cells.
HCT116 MTAP-/- (homozygous knockout of MTAP gene in HCT116 MTAP-WT cells by CRISPER/Cas9 method) cells were maintained in RPMI1640 medium containing 10 % FBS and 1 % penicillin-streptomycin. Approximately 5×10^2 cells were seeded in a 96-well plate and treated with a test compound. (0.64 nM - 2,000 nM, 6 dose points for HCT116 MTAP-/- cells for 5x and 6 days) cell growth was measured by SRB staining and absorbance was detected at 540 nm on a Synergy™ NEO microplate reader. The 50 % growth inhibition value (GI50) of the cell line was calculated using GraphPad Prism V9 software.
For orientation: In SRB staining, fixed cells bind dye roughly in proportion to their protein.

[1] abbreviates: Homo sapiens, HCT-116, 144 h, HCT116 MTAP-/- cells, 0.64 nM - 2,000 nM, 6 dose points, 6 days, SRB staining, absorbance at 540 nm, read-out: HCT116 MTAP-/- cell growth inhibition (GI50).

Read-outs that look alike come from different tables or passages of the source. A value given as a limit tells only on which side of the number the result lay.

Turning to “7-chloro-2-(4-methoxyphenyl)-1-methyl-5-(o-tolyl)-1,5-dihydro-4H-imidazo[4,5-c]quinolin-4-one [Compound 10]”, the GI50 (HCT116 MTAP-/- cells, 0.64 nM - 2,000 nM, 6 dose points, 6 days, SRB staining, absorbance at 540 nm, read-out: HCT116 MTAP-/- cell growth inhibition (GI50)) is < 100 nM.

In the case of `Cn1c(Cc2ccccc2)nc2c(=O)n(-c3ccccc3)c3cc(Cl)ccc3c21` [Compound 1, 2-benzyl-7-chloro-1-methyl-5-phenyl-1,5-dihydro-4H-imidazo[4,5-c]quinolin-4-one], under “Homo sapiens, HCT-116, 144 h, read-out: HCT116 MTAP-/- cell growth inhibition (GI50, nM)”, the GI50 is 100 to 500 nM.

`COc1ccc(Cc2nc3c(=O)n(-c4ccccc4)c4cc(Cl)ccc4c3n2C)cc1` [Compound 2, 7-chloro-2-(4-methoxybenzyl)-1-methyl-5-phenyl-1,5-dihydro-4H-imidazo[4,5-c]quinolin-4-one]: the GI50 under setting [1] was < 100 nM.

Turning to `Cn1c(Cc2ccc(O)cc2)nc2c(=O)n(-c3ccccc3)c3cc(Cl)ccc3c21` [Compound 3, 7-chloro-2-(4-hydroxybenzyl)-1-methyl-5-phenyl-1,5-dihydro-4H-imidazo[4,5-c]quinolin-4-one], the GI50 under setting [1] was > 1000 nM.

`COc1cccc(Cc2nc3c(=O)n(-c4ccccc4)c4cc(Cl)ccc4c3n2C)c1` [Compound 4, 7-chloro-2-(3-methoxybenzyl)-1-methyl-5-phenyl-1,5-dihydro-4H-imidazo[4,5-c]quinolin-4-one]: the GI50 under setting [1] is < 100 nM.

In the case of `COc1ccccc1Cc1nc2c(=O)n(-c3ccccc3)c3cc(Cl)ccc3c2n1C` [Compound 5, 7-chloro-2-(2-methoxybenzyl)-1-methyl-5-phenyl-1,5-dihydro-4H-imidazo[4,5-c]quinolin-4-one], the GI50 under setting [1] was in the range of 100 to 500 nM.

With `Cn1c(Cc2ccc(Cl)cc2)nc2c(=O)n(-c3ccccc3)c3cc(Cl)ccc3c21` [Compound 6, 7-chloro-2-(4-chlorobenzyl)-1-methyl-5-phenyl-1,5-dihydro-4H-imidazo[4,5-c]quinolin-4-one], under setting [1], the GI50 lay within 100 to 500 nM.

With `Cn1c(Cc2ccncc2)nc2c(=O)n(-c3ccccc3)c3cc(Cl)ccc3c21` [Compound 7, 7-chloro-1-methyl-5-phenyl-2-(pyridin-4-ylmethyl)-1,5-dihydro-4H-imidazo[4,5-c]quinolin-4-one], the GI50 under setting [1] was > 1000 nM.

In the case of `COc1ccc(Cc2nc3c(=O)n(-c4ccccc4)c4cc(Cl)ccc4c3n2C)cc1OC` [Compound 8, 7-chloro-2-(3,4-dimethoxybenzyl)-1-methyl-5-phenyl-1,5-dihydro-4H-imidazo[4,5-c]quinolin-4-one], under setting [1], the GI50 is 100 to 500 nM.

On to `Cn1c(CCc2ccccc2)nc2c(=O)n(-c3ccccc3)c3cc(Cl)ccc3c21` [Compound 9, 7-chloro-1-methyl-2-phenethyl-5-phenyl-1,5-dihydro-4H-imidazo[4,5-c]quinolin-4-one], for which, under setting [1], the GI50 is > 1000 nM.

Regarding `O=c1c2nc(Cc3ccccc3)[nH]c2c2ccc(Cl)cc2n1-c1ccccc1` [Compound 11, 2-benzyl-7-chloro-5-phenyl-1,5-dihydro-4H-imidazo[4,5-c]quinolin-4-one], the GI50 under setting [1] lay within 500 to 1000 nM.

`Cn1c(Cn2ccnc2)nc2c(=O)n(-c3ccccc3)c3cc(Cl)ccc3c21` [Compound 12, 2-((1H-imidazol-1-yl)methyl)-7-chloro-1-methyl-5-phenyl-1,5-dihydro-4H-imidazo[4,5-c]quinolin-4-one]: the GI50 under setting [1] is > 1000 nM.

`COc1ccc(Cc2nc3c(=O)n(-c4ccccc4)c4nc(NCC(F)(F)F)ccc4c3n2C)cc1` [Compound 15, 2-(4-methoxybenzyl)-1-methyl-5-phenyl-7-((2,2,2-trifluoroethyl)amino)-1,5-dihydro-4H-imidazo[4,5-c][1,8]naphthyridin-4-one]: the GI50 under setting [1] was > 1000 nM.

Consider `COc1ccc(Cc2nc3c(=O)n(-c4ccc(Cl)c(F)c4)c4cc(Cl)ccc4c3n2C)cc1` [Compound 16, 7-chloro-5-(4-chloro-3-fluorophenyl)-2-(4-methoxybenzyl)-1-methyl-1,5-dihydro-4H-imidazo[4,5-c]quinolin-4-one], for which the GI50 under setting [1] was > 1000 nM.

Regarding `COc1ccc(Cc2nc3c(=O)n(-c4ccc(F)c(Cl)c4)c4cc(Cl)ccc4c3n2C)cc1` [Compound 17, 7-chloro-5-(3-chloro-4-fluorophenyl)-2-(4-methoxybenzyl)-1-methyl-1,5-dihydro-4H-imidazo[4,5-c]quinolin-4-one], the GI50 under setting [1] is > 1000 nM.

For `COc1ccc(Sc2nc3c(=O)n(-c4ccccc4)c4cc(Cl)ccc4c3n2C)cc1` [Compound 18, 7-chloro-2-((4-methoxyphenyl)thio)-1-methyl-5-phenyl-1,5-dihydro-4H-imidazo[4,5-c]quinolin-4-one], the GI50 under setting [1] is < 100 nM.

As for `COc1ccc(S(=O)(=O)c2nc3c(=O)n(-c4ccccc4)c4cc(Cl)ccc4c3n2C)cc1` [Compound 19, 7-chloro-2-((4-methoxyphenyl)sulfonyl)-1-methyl-5-phenyl-1,5-dihydro-4H-imidazo[4,5-c]quinolin-4-one], the GI50 under setting [1] lay within 500 to 1000 nM.

On to `COc1ccc([S+]([O-])c2nc3c(=O)n(-c4ccccc4)c4cc(Cl)ccc4c3n2C)cc1` (stereo not shown) [Compound 20, 7-chloro-2-((4-methoxyphenyl)sulfinyl)-1-methyl-5-phenyl-1,5-dihydro-4H-imidazo[4,5-c]quinolin-4-one], for which the GI50 under setting [1] lay in the range of 500 to 1000 nM.

On to `COc1ccc(Cc2nc3c(=O)n(-c4cccnc4C)c4cc(Cl)ccc4c3n2C)cc1` [Compound 21, 7-chloro-2-(4-methoxybenzyl)-1-methyl-5-(2-methylpyridin-3-yl)-1,5-dihydro-4H-imidazo[4,5-c]quinolin-4-one], for which, under setting [1], the GI50 was < 100 nM.

On to `COc1ccc(Cc2nc3c(=O)n(-c4cccnc4C)c4ccccc4c3n2C)cc1` [Compound 22, 2-(4-methoxybenzyl)-1-methyl-5-(2-methylpyridin-3-yl)-1,5-dihydro-4H-imidazo[4,5-c]quinolin-4-one], for which the GI50 under setting [1] was 500 to 1000 nM.

On to `COc1ccc(Cc2nc3c(=O)n(-c4cccnc4C(F)(F)F)c4cc(Cl)ccc4c3n2C)cc1` [Compound 23, 7-chloro-2-(4-methoxybenzyl)-1-methyl-5-(2-(trifluoromethyl)pyridin-3-yl)-1,5-dihydro-4H-imidazo[4,5-c]quinolin-4-one], for which the GI50 under setting [1] fell in the range of 100 to 500 nM.

Turning to `COc1ccc(Cc2nc3c(=O)n(-c4cccnc4C4CC4)c4cc(Cl)ccc4c3n2C)cc1` [Compound 24, 7-chloro-5-(2-cyclopropylpyridin-3-yl)-2-(4-methoxybenzyl)-1-methyl-1,5-dihydro-4H-imidazo[4,5-c]quinolin-4-one], under setting [1], the GI50 is 100 to 500 nM.

`COc1ccc(Cc2nc3c(=O)n(-c4ccccc4C(F)(F)F)c4cc(Cl)ccc4c3n2C)cc1` [Compound 25, 7-chloro-2-(4-methoxybenzyl)-1-methyl-5-(2-(trifluoromethyl)phenyl)-1,5-dihydro-4H-imidazo[4,5-c]quinolin-4-one]: the GI50 under setting [1] is 100 to 500 nM.

As to `COc1ccc(Cc2nc3c(=O)n(-c4ccccc4Cl)c4cc(Cl)ccc4c3n2C)cc1` [Compound 26, 7-chloro-5-(2-chlorophenyl)-2-(4-methoxybenzyl)-1-methyl-1,5-dihydro-4H-imidazo[4,5-c]quinolin-4-one], the GI50 under setting [1] was in the range of 100 to 500 nM.

Take `COc1ccc(Cc2nc3c(=O)n(-c4cccnc4C)c4cc(C(F)(F)F)ccc4c3n2C)cc1` [Compound 27, 2-(4-methoxybenzyl)-1-methyl-5-(2-methylpyridin-3-yl)-7-(trifluoromethyl)-1,5-dihydro-4H-imidazo[4,5-c]quinolin-4-one]: under setting [1], the GI50 was < 100 nM.
